Measurements published in PubChem BioAssay AID248 (DTP/NCI, 2004).
“And” between values parts separate entries of the source, which are not always exact repeats. Identical values can stand only once. Toxic doses and inconclusive results are not listed.

System: L1210 leukemia ip in BDF1 mice, survival T/C
Assay: NCI In Vivo Anticancer Drug Screen. Data for tumor model L1210 Leukemia (intraperitoneal) in B6D2F1 (BDF1) mice
Settings: higher = longer survival
In short: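 In this screen, tumor-bearing mice given compound are compared to those given vehicle, and their survival values are reported as a treated-to-control quotient.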

CO[C@@]12[C@H](COC(N)=O)C3=C(C(=O)C(C)=C(N)C3=O)N1C[C@@H]1N[C@@H]12
T/C (endpoint: mean survival time, dose: 0.1 mg/kg/injection, schedule: Q01DX Z (ip), vehicle: carboxymethylcellulose (CMC)): 110 % of control
T/C (endpoint: mean survival time, dose: 0.18 mg/kg/injection, schedule: Q04DX002 (ip), vehicle: saline): 106 % of control and 110 % of control
T/C (endpoint: mean survival time, dose: 0.2 mg/kg/injection, schedule: Q01DX Z (ip), vehicle: carboxymethylcellulose (CMC)): 110 % of control
T/C (endpoint: mean survival time, dose: 0.2 mg/kg/injection, schedule: Q02DX010 (ip), vehicle: carboxymethylcellulose (CMC)): 118 % of control
T/C (endpoint: mean survival time, dose: 0.25 mg/kg/injection, schedule: Q01DX Z (ip), vehicle: carboxymethylcellulose (CMC)): 107 % of control
T/C (endpoint: mean survival time, dose: 0.32 mg/kg/injection, schedule: Q01DX Z (ip), vehicle: carboxymethylcellulose (CMC)): 98 % of control
T/C (endpoint: mean survival time, dose: 0.35 mg/kg/injection, schedule: Q01DX009 (ip), vehicle: saline): 120 % of control
T/C (endpoint: mean survival time, dose: 0.35 mg/kg/injection, schedule: Q04DX002 (ip), vehicle: saline): 103 % of control
T/C (endpoint: mean survival time, dose: 0.4 mg/kg/injection, schedule: Q01DX Z (ip), vehicle: carboxymethylcellulose (CMC)): 114 % of control and 116 % of control
T/C (endpoint: mean survival time, dose: 0.4 mg/kg/injection, schedule: Q02DX010 (ip), vehicle: carboxymethylcellulose (CMC)): 111 % of control and 90 % of control
T/C (endpoint: mean survival time, dose: 0.5 mg/kg/injection, schedule: Q01DX Z (ip), vehicle: carboxymethylcellulose (CMC)): 107 % of control and 122 % of control
T/C (endpoint: mean survival time, dose: 0.53 mg/kg/injection, schedule: Q01DX Z (ip), vehicle: carboxymethylcellulose (CMC)): 114 % of control
T/C (endpoint: mean survival time, dose: 0.7 mg/kg/injection, schedule: Q01DX001 (ip), vehicle: saline): 109 % of control
T/C (endpoint: mean survival time, dose: 0.7 mg/kg/injection, schedule: Q04DX002 (ip), vehicle: saline): 103 % of control and 111 % of control
T/C (endpoint: mean survival time, dose: 0.75 mg/kg/injection, schedule: Q01DX001 (ip), vehicle: water): 118 % of control
T/C (endpoint: mean survival time, dose: 0.8 mg/kg/injection, schedule: Q02DX010 (ip), vehicle: carboxymethylcellulose (CMC)): 104 % of control and 121 % of control
T/C (endpoint: mean survival time, dose: 0.86 mg/kg/injection, schedule: Q02DX010 (ip), vehicle: carboxymethylcellulose (CMC)): 117 % of control
T/C (endpoint: mean survival time, dose: 0.9 mg/kg/injection, schedule: Q02DX010 (ip), vehicle: other): 157 % of control and 219 % of control
T/C (endpoint: mean survival time, dose: 0.96 mg/kg/injection, schedule: Q01DX001 (ip), vehicle: acetone): 114 % of control
T/C (endpoint: mean survival time, dose: 1.0 mg/kg/injection, schedule: Q01DX001 (ip), vehicle: saline): 111 % of control
T/C (endpoint: mean survival time, dose: 1.0 mg/kg/injection, schedule: Q01DX Z (ip), vehicle: carboxymethylcellulose (CMC)): 161 % of control
T/C (endpoint: mean survival time, dose: 1.1 mg/kg/injection, schedule: Q01DX009 (ip), vehicle: saline): 155 % of control
T/C (endpoint: mean survival time, dose: 1.12 mg/kg/injection, schedule: Q01DX015 (ip), vehicle: carboxymethylcellulose (CMC)): 171 % of control
T/C (endpoint: mean survival time, dose: 1.25 mg/kg/injection, schedule: Q01DX015 (ip), vehicle: saline): 162 % of control
T/C (endpoint: mean survival time, dose: 1.3 mg/kg/injection, schedule: Q02DX010 (ip), vehicle: other): 167 % of control and 207 % of control
T/C (endpoint: mean survival time, dose: 1.4 mg/kg/injection, schedule: Q01DX001 (ip), vehicle: acetone): 111 % of control
T/C (endpoint: mean survival time, dose: 1.4 mg/kg/injection, schedule: Q01DX009 (ip), vehicle: saline): 154 % of control and 178 % of control
T/C (endpoint: mean survival time, dose: 1.5 mg/kg/injection, schedule: Q01DX001 (ip), vehicle: saline): 115 % of control
T/C (endpoint: mean survival time, dose: 1.5 mg/kg/injection, schedule: Q01DX001 (ip), vehicle: water): 117 % of control
T/C (endpoint: mean survival time, dose: 1.5 mg/kg/injection, schedule: Q07DX003 (ip), vehicle: saline): 123 % of control
T/C (endpoint: mean survival time, dose: 1.5 mg/kg/injection, schedule: Q## X003 (ip), vehicle: saline): 118 % of control
T/C (endpoint: mean survival time, dose: 1.6 mg/kg/injection, schedule: Q01DX001 (ip), vehicle: saline): 117 % of control
T/C (endpoint: mean survival time, dose: 1.9 mg/kg/injection, schedule: Q01DX009 (ip), vehicle: saline): 97 % of control
T/C (endpoint: mean survival time, dose: 2.0 mg/kg/injection, schedule: Q01DX Z (ip), vehicle: carboxymethylcellulose (CMC)): 106 % of control
T/C (endpoint: mean survival time, dose: 2.0 mg/kg/injection, schedule: Q02DX010 (ip), vehicle: other): 180 % of control and 184 % of control
T/C (endpoint: mean survival time, dose: 2.12 mg/kg/injection, schedule: Q02DX010 (ip), vehicle: carboxymethylcellulose (CMC)): 158 % of control
T/C (endpoint: mean survival time, dose: 2.2 mg/kg/injection, schedule: Q01DX001 (ip), vehicle: saline): 108 % of control
T/C (endpoint: mean survival time, dose: 2.5 mg/kg/injection, schedule: Q01DX015 (ip), vehicle: saline): 154 % of control
T/C (endpoint: mean survival time, dose: 2.8 mg/kg/injection, schedule: Q01DX009 (ip), vehicle: saline): 93 % of control
T/C (endpoint: mean survival time, dose: 3.0 mg/kg/injection, schedule: Q01DX001 (ip), vehicle: saline): 123 % of control
T/C (endpoint: mean survival time, dose: 3.0 mg/kg/injection, schedule: Q02DX010 (ip), vehicle: other): 115 % of control and 118 % of control
T/C (endpoint: mean survival time, dose: 3.0 mg/kg/injection, schedule: Q## X003 (ip), vehicle: saline): 152 % of control
T/C (endpoint: mean survival time, dose: 3.2 mg/kg/injection, schedule: Q02DX010 (ip), vehicle: carboxymethylcellulose (CMC)): 184 % of control
T/C (endpoint: mean survival time, dose: 3.3 mg/kg/injection, schedule: Q01DX001 (ip), vehicle: saline): 116 % of control
T/C (endpoint: mean survival time, dose: 4.5 mg/kg/injection, schedule: Q02DX010 (ip), vehicle: other): 86 % of control and 88 % of control
T/C (endpoint: mean survival time, dose: 5.0 mg/kg/injection, schedule: Q01DX001 (ip), vehicle: saline): 118 % of control
T/C (endpoint: mean survival time, dose: 5.0 mg/kg/injection, schedule: Q01DX015 (ip), vehicle: saline): 89 % of control
T/C (endpoint: mean survival time, dose: 6.0 mg/kg/injection, schedule: Q01DX001 (ip), vehicle: saline): 196 % of control
T/C (endpoint: mean survival time, dose: 6.0 mg/kg/injection, schedule: Q01DX001 (ip), vehicle: water): 174 % of control
T/C (endpoint: mean survival time, dose: 6.7 mg/kg/injection, schedule: Q02DX010 (ip), vehicle: carboxymethylcellulose (CMC)): 84 % of control
T/C (endpoint: mean survival time, dose: 7.5 mg/kg/injection, schedule: Q01DX001 (ip), vehicle: saline): 123 % of control
T/C (endpoint: mean survival time, dose: 10.6 mg/kg/injection, schedule: Q04DX002 (ip), vehicle: saline): 171 % of control
T/C (endpoint: mean survival time, dose: 11.0 mg/kg/injection, schedule: Q01DX001 (ip), vehicle: acetone): 193 % of control
T/C (endpoint: mean survival time, dose: 12.0 mg/kg/injection, schedule: Q## X003 (ip), vehicle: saline): 100 % of control
T/C (endpoint: mean survival time, dose: 45.0 micrograms/kg/injection, schedule: Q01DX009 (ip), vehicle: saline): 99 % of control and 117 % of control
T/C (endpoint: mean survival time, dose: 90.0 micrograms/kg/injection, schedule: Q01DX009 (ip), vehicle: saline): 106 % of control and 120 % of control
T/C (endpoint: mean survival time, dose: 180.0 micrograms/kg/injection, schedule: Q01DX009 (ip), vehicle: saline): 104 % of control and 120 % of control
T/C (endpoint: mean survival time, dose: 350.0 micrograms/kg/injection, schedule: Q01DX009 (ip), vehicle: saline): 121 % of control
T/C (endpoint: mean survival time, dose: 1400.0 micrograms/kg/injection, schedule: Q01DX009 (ip), vehicle: saline): 153 % of control
T/C (endpoint: median survival time, dose: 1.5 mg/kg/injection, schedule: Q01DX001 (ip), vehicle: saline): 100 % of control
T/C (endpoint: median survival time, dose: 3.0 mg/kg/injection, schedule: Q01DX001 (ip), vehicle: saline): 109 % of control
T/C (endpoint: median survival time, dose: 6.0 mg/kg/injection, schedule: Q01DX001 (ip), vehicle: saline): 109 % of control
T/C (endpoint: median survival time, dose: 12.0 mg/kg/injection, schedule: Q01DX001 (ip), vehicle: saline): 117 % of control

CC1=C(C(=O)O)C(C)CC(=O)N1c1ccccc1 (stereo not drawn)
T/C (endpoint: mean survival time, dose: 50.0 mg/kg/injection, schedule: Q01DX001 (ip), vehicle: carboxymethylcellulose (CMC)): 102 % of control
T/C (endpoint: mean survival time, dose: 100.0 mg/kg/injection, schedule: Q01DX001 (ip), vehicle: carboxymethylcellulose (CMC)): 96 % of control
T/C (endpoint: mean survival time, dose: 200.0 mg/kg/injection, schedule: Q01DX001 (ip), vehicle: carboxymethylcellulose (CMC)): 93 % of control
T/C (endpoint: mean survival time, dose: 400.0 mg/kg/injection, schedule: Q01DX001 (ip), vehicle: carboxymethylcellulose (CMC)): 96 % of control

CCC(C)C(C#N)(CCN(C)C)Cc1cccc2ccccc12 (stereo not drawn)
T/C (endpoint: mean survival time, dose: 25.0 mg/kg/injection, schedule: Q04DX003 (ip), vehicle: Klucel (hydroxypropylcellulose) (HPC)): 97 % of control
T/C (endpoint: mean survival time, dose: 50.0 mg/kg/injection, schedule: Q04DX003 (ip), vehicle: Klucel (hydroxypropylcellulose) (HPC)): 92 % of control
T/C (endpoint: mean survival time, dose: 100.0 mg/kg/injection, schedule: Q01DX009 (ip), vehicle: Klucel (hydroxypropylcellulose) (HPC)): 100 % of control
T/C (endpoint: mean survival time, dose: 100.0 mg/kg/injection, schedule: Q04DX003 (ip), vehicle: Klucel (hydroxypropylcellulose) (HPC)): 103 % of control

CC12CC3(O)OC(O1)C1(COC(=O)c4ccccc4)C3CC21OC1OC(CO)C(O)C(O)C1O (stereo not drawn)
T/C (endpoint: mean survival time, dose: 100.0 mg/kg/injection, schedule: Q04DX002 (ip), vehicle: saline): 107 % of control
T/C (endpoint: mean survival time, dose: 200.0 mg/kg/injection, schedule: Q04DX002 (ip), vehicle: saline): 107 % of control
T/C (endpoint: mean survival time, dose: 400.0 mg/kg/injection, schedule: Q04DX002 (ip), vehicle: saline): 114 % of control

COc1ccc(C(=O)CC2(O)C(=O)Nc3ccc(Br)cc32)cc1 (stereo not drawn)
T/C (endpoint: mean survival time, dose: 100.0 mg/kg/injection, schedule: Q04DX002 (ip), vehicle: Klucel (hydroxypropylcellulose) (HPC)): 92 % of control
T/C (endpoint: mean survival time, dose: 200.0 mg/kg/injection, schedule: Q04DX002 (ip), vehicle: Klucel (hydroxypropylcellulose) (HPC)): 89 % of control
T/C (endpoint: mean survival time, dose: 400.0 mg/kg/injection, schedule: Q04DX002 (ip), vehicle: Klucel (hydroxypropylcellulose) (HPC)): 92 % of control

O=C(c1ccccc1)c1cc(Cl)ccc1N1C(=O)C=CC1=O
T/C (endpoint: mean survival time, dose: 25.0 mg/kg/injection, schedule: Q04DX002 (ip), vehicle: saline with Tween-80): 90 % of control
